Data set [1] is described as follows: MTT assay, PhTERT-SEAP (H1299). It counts as cell-based, human. To be noted: human, H1299 cells carrying the PhTERT-SEAP reporter, PhTERT-SEAP (H1299); for viability at 1 μM: Conc. 1 μM, read-out: Relative MTT viability (%); for viability at 10 μM: Conc. 10 μM; for viability at 10 μM / viability at 100 μM: read-out: Relative MTT viability (%) (converted); for viability at 100 μM: Conc. 100 μM. The method, then:
Further, cells were subjected to MTT assay to compare the relative toxicity or effect of each compound on cell proliferation and activity.
The above-described cells are cultured in a 96-well plate, to which was added with 25 μl MTT solution, and cultured in a 37° C. carbon dioxide incubator for 4 hours. Then, 100 μl Lysis buffer is added and incubated in a 37° C. carbon dioxide incubator overnight. An ELISA reader (Bio-Rad Model 450) is used to read optical density (O.D.) at 550 nm.

The next data set concerns hTERT. Briefly: Secreted alkaline phosphatase (SEAP) assay, PhTERT-SEAP (H1299). The conditions noted are these: Homo sapiens, 24 hours; for activity at 1 µM: NCI-H1299, Conc. 1 μM, read-out: Relative SEAP activity (%); for activity at 10 µM: NCI-H1299, Conc. 10 μM; for activity at 10 µM / activity at 100 µM: read-out: Relative SEAP activity (%) (converted); for activity at 100 µM: NCI-H1299, Conc. 100 μM. It counts as cell-based. The protocol: H1299 were grown in RPMI 1640 media supplemented with 10% fetal bovine serum, 100 units/mL penicillin and […] streptomycin in a humidified atmosphere with 5% CO2 at 37° C. Culture media were changed every three days. To establish stable cell lines that the expression of hTERT could be monitored by a reporter system, a about 3.3 kbp DNA fragment ranging from −3338 to +1 bp of the hTERT gene (hTERT promoter, PhTERT) was subcloned upstream to a secreted alkaline phosphatase gene (SEAP) and transfected into H1299 by electroporation. The stable clones were selected using G418. The stable clones derived from H1299 were cultured using conditions that are similar to their parental cells.
Secreted alkaline phosphatase was used as the reporter system to monitor the transcriptional activity of hTERT. Here, about 10^4 cells each were grown in 96-well plates and incubated at 37° C. for 24 hours and changed with fresh media. Varying amounts of drugs were added and cells were incubated for another 24 hours. Culture media were collected and heated at 65° C. for 10 min to inactivate heat-labile phosphatases. An equal amount of SEAP buffer (2 M diethanolamine, 1 mM MgCl2, and 20 mM L-homoarginine) was added to the media and p-nitrophenyl phosphate was added to a final concentration of 12 mM. Absorptions at 405 nm were taken, and the rate of absorption increase is determined (the increasing rate of absorbance at 405 nm was used to represent the activity of SEAP).

`O=C(CCl)Nc1ccc2c(c1NC(=O)Cc1ccc(F)cc1)C(=O)c1ccccc1C2=O` [CC-24, 1-[2-(4-fluorophenyl)acetylamino]-2-(chloroacetamido)-anthraquinone]: the melting point (in general, the temperature of the solid-liquid transition) lay in the range of 213 to 214 °C. Besides, in data set [1], the viability – broadly, a read-out of living cells in per cent, often relative to untreated cells – at 1 μM is 88.9 ± 5.07%; the viability at 10 μM is 7.31%; the viability at 100 μM is 6.17%. Besides, in the data set with hTERT, the activity at 1 µM turned out to be 93.1 ± 5.96%, the activity at 10 µM is 8.4% and the activity at 100 µM is 1.75%.
In the case of `O=C(CCl)Nc1ccc2c(c1NC(=O)C1CC1)C(=O)c1ccccc1C2=O` [CC-25, 1-[(cyclopropanecarbonyl)amino]-2-(chloroacetamido)-anthraquinone], the melting point lay within 191 to 192 °C. In data set [1], the viability at 1 μM is 88.7 ± 3.92%. Besides, in the data set with hTERT, the activity at 1 µM was determined as 83.8 ± 2.67%, the activity at 10 µM is 3.46% and the activity at 100 µM was 1.38%.
Regarding `O=C(CCl)Nc1ccc2c(c1NC(=O)C1CCCCC1)C(=O)c1ccccc1C2=O` [CC-26, 1-[(cyclohexanecarbonyl)amino]-2-(chloroacetamido)-anthraquinone], the melting point was in the range of 216 to 217 °C. In addition, in data set [1], the viability at 1 μM was determined as 82.3 ± 4.4% and the viability at 10 μM was 1.54%. Also, in the data set with hTERT, the activity at 1 µM came to 82.5 ± 4.53%, the activity at 10 µM was 3.07% and the activity at 100 µM is 1.76%.
Compound `O=C(CCl)Nc1ccc2c(c1NC(=O)c1ccco1)C(=O)c1ccccc1C2=O` [CC-27, 1-[(2-furoyl)amino]-2-(chloroacetamido)-anthraquinone] gave a melting point of 211 to 212 °C. Also, the viability at 1 μM in data set [1] was found to be 80.4 ± 3.56%. In addition, in the data set with hTERT, the activity at 1 µM turned out to be 84.7 ± 23.3%, the activity at 10 µM is 2.94% and the activity at 100 µM is 2.62%.
In the case of `O=C(CCl)Nc1ccc2c(c1NC(=O)c1ccno1)C(=O)c1ccccc1C2=O` [CC-29, 1-[(5-isoxazolecarbonyl)amino]-2-(chloroacetamido)-anthraquinone], the melting point lay in the range of 212 to 213 °C. Further, in data set [1], the viability at 1 μM amounted to 105 ± 7.19%, the viability at 10 μM was 3.47% and the viability at 100 μM is 0.11%. In the data set with hTERT, the activity at 1 µM turned out to be 92.5 ± 0.99%, the activity at 10 µM is 4.91% and the activity at 100 µM was 1.35%.
On to `Cc1cc(C(=O)Nc2c(NC(=O)CCl)ccc3c2C(=O)c2ccccc2C3=O)c(C)o1` [CC-30, 1-[(2,5-dimethyl-3-furoyl)amino]-2-(chloroacetamido)-anthraquinone], for which the melting point lay within 207 to 208 °C. Besides, in data set [1], the viability at 1 μM was 96 ± 2.27% and the viability at 10 μM was 2.93%. Moreover, in the data set with hTERT, the activity at 1 µM is 81.2 ± 1.85%, the activity at 10 µM is 2.37% and the activity at 100 µM was 0.83%.
In turn, `O=C(CCl)Nc1ccc2c(c1NC(=O)COc1ccccc1)C(=O)c1ccccc1C2=O` [CC-31, 1-[2-(phenoxy)acetylamino]-2-(chloroacetamido)-anthraquinone] gave a melting point of 217 to 218 °C. For the same compound, in data set [1], the viability at 1 μM was found to be 101 ± 4.91%, the viability at 10 μM was 66.5% and the viability at 100 μM was 4.86%. Also, in the data set with hTERT, the activity at 1 µM was 83 ± 1.98%, the activity at 10 µM is 72.9% and the activity at 100 µM was 4.7%.
Regarding `O=C(CCl)Nc1ccc2c(c1NC(=O)CSc1ccccc1)C(=O)c1ccccc1C2=O` [CC-32, 1-[2-(phenylsulfanyl)acetylamino]-2-(chloroacetamido)-anthraquinone], the melting point lay within 161 to 162 °C. In data set [1], the viability at 1 μM was found to be 88.5 ± 2.25% and the viability at 10 μM was 5.73%. Also, in the data set with hTERT, the activity at 1 µM amounted to 80 ± 4.39%, the activity at 10 µM is 3.89% and the activity at 100 µM was -0.05%.
In turn, `O=C(CN1CCN(c2ccccc2F)CC1)Nc1ccc2c(c1NC(=O)c1ccccc1)C(=O)c1ccccc1C2=O` [CC-34, 1-(benzamido)-2-[2-[4-(2-fluorophenyl)piperazino]acetylamino]-anthraquinone] returned a melting point of 228 to 229 °C. In addition, in data set [1], the viability at 1 μM is 98.6 ± 2.29%, the viability at 10 μM is 92.3 ± 2.41% and the viability at 100 μM is 27.8 ± 4.82%. Besides, in the data set on hTERT, the activity at 1 µM came to 98.7 ± 2.55%, the activity at 10 µM is 79.6 ± 1.35% and the activity at 100 µM was 15.6 ± 1.54%.
The compound `Cc1ccc(C(=O)Nc2c(NC(=O)CN(C)C)ccc3c2C(=O)c2ccccc2C3=O)cc1` [CC-35, 1-(4-methylbenzamido)-2-[2-(dimethylamino)acetylamino]-anthraquinone] yielded a melting point of 190 to 191 °C. In addition, in data set [1], the viability at 1 μM amounted to 107 ± 2.85% and the viability at 10 μM is 88.4%. In the data set with hTERT, the activity at 1 µM came out at 99.5 ± 3.37%, the activity at 10 µM was 78.5% and the activity at 100 µM is 9.61%.
`Cc1ccc(C(=O)Nc2c(NC(=O)CN(C)CC3OCCO3)ccc3c2C(=O)c2ccccc2C3=O)cc1` [CC-36, 1-(4-methylbenzamido)-2-[2-[(1,3-dioxolan-2-ylmethyl)(methyl)amino]acetylamino]-anthraquinone] registered a melting point of 156 to 157 °C. In addition, in data set [1], the viability at 1 μM was found to be 104 ± 2.12%, the viability at 10 μM is 88.6% and the viability at 100 μM was 3.78%. For the same compound, in the data set on hTERT, the activity at 1 µM was found to be 101 ± 3.01%, the activity at 10 µM is 76.5% and the activity at 100 µM was 10.2%.
Compound `Cc1ccc(C(=O)Nc2c(NC(=O)CN(C)CCc3ccccn3)ccc3c2C(=O)c2ccccc2C3=O)cc1` [CC-37, 4-methyl-N-(2-(2-(methyl(2-(pyridin-2-yl)ethyl)amino)acetamido)-9,10-dioxo-9,10-dihydroanthracen-1-yl)benzamide] displayed a melting point of 166 to 167 °C. Also, in data set [1], the viability at 1 μM came out at 94.9 ± 6.49%, the viability at 10 μM is 46.2% and the viability at 100 μM was 22%. In the data set with hTERT, the activity at 1 µM worked out at 90.6 ± 1.48%, the activity at 10 µM is 11.9% and the activity at 100 µM is 1.47%.
`Cc1ccc(C(=O)Nc2c(NC(=O)CN3CCCCC3)ccc3c2C(=O)c2ccccc2C3=O)cc1` [CC-39, N-(9,10-dioxo-2-(2-(piperidin-1-yl)acetamido)-9,10-dihydroanthracen-1-yl)-4-methylbenzamide] had a melting point of 213 to 214 °C. In data set [1], the viability at 1 μM was 86.3 ± 6.52%, the viability at 10 μM was 70.2% and the viability at 100 μM was 10.8%. For the same compound, in the data set with hTERT, the activity at 1 µM turned out to be 85.4 ± 7.56%, the activity at 10 µM was 70.1% and the activity at 100 µM was 8.3%.
`Cc1ccc(C(=O)Nc2c(NC(=O)CN3CCC4(CC3)OCCO4)ccc3c2C(=O)c2ccccc2C3=O)cc1` [CC-40, 1-(4-methylbenzamido)-2-[2-(1,4-dioxa-8-azaspiro[4.5]dec-8-yl)acetylamino]-anthraquinone] gave a melting point of 197 to 198 °C. Moreover, in data set [1], the viability at 1 μM came to 74.3 ± 6.15%, the viability at 10 μM is 55.5% and the viability at 100 μM was 16.8%. Moreover, in the data set with hTERT, the activity at 1 µM was found to be 78.9 ± 3.67%, the activity at 10 µM is 51.6% and the activity at 100 µM was 6.67%.
`Cc1ccc(C(=O)Nc2c(NC(=O)CN3CCOCC3)ccc3c2C(=O)c2ccccc2C3=O)cc1` [CC-41, 1-(4-methylbenzamido)-2-[(2-morpholinoacetyl)amino]-anthraquinone] displayed a melting point of 225 to 226 °C. For the same compound, in data set [1], the viability at 1 μM was 81.5 ± 6.24%, the viability at 10 μM is 56.7% and the viability at 100 μM was 15.5%. Besides, in the data set on hTERT, the activity at 1 µM was found to be 98.37 ± 0.9%, the activity at 10 µM is 54.2% and the activity at 100 µM was 3.75%.
Compound `Cc1ccc(C(=O)Nc2c(NC(=O)CN3CCSCC3)ccc3c2C(=O)c2ccccc2C3=O)cc1` [CC-42, 1-(4-methylbenzamido)-2-[2-(1,4-thiazinan-4-yl)acetylamino]-anthraquinone] returned a melting point of 210 to 211 °C. In data set [1], the viability at 1 μM came to 85.8 ± 7.69%, the viability at 10 μM is 70% and the viability at 100 μM is 20%. Besides, in the data set on hTERT, the activity at 1 µM worked out at 88 ± 1.2%, the activity at 10 µM was 72.6% and the activity at 100 µM was 12.2%.

The record behind these values is patent US8530465B2, “1, 2-disubstituted amido-anthraquinone derivatives, preparation method and application thereof” (National Defense Medical Center, priority 2010, dated 2013).
